Results as given in article PMC5428509, “Irreversible inhibition of BTK kinase by a novel highly selective inhibitor CHMFL-BTK-11 suppresses inflammatory response in rheumatoid arthritis model” (Scientific Reports, 2017).

Experiments:
JAK3 kinase = molecular target: T1, JAK3 kinase (Homo sapiens, UniProt P52333); assay: ADP-Glo biochemical kinase assay; also strong binding in KinomeScan at […]
T1 construct: purified JAK3 kinase protein

PFPK5(P.falciparum) = molecular target: T2, PFPK5(P.falciparum) (Plasmodium falciparum, UniProt P61075); assay: biochemical; set-up: KinomeScan competition binding panel (DiscoveRx), percent of control at 1 uM; conditions: read-out: Percent Control
T2 construct: gene CRK2

SIK = molecular target: T3, SIK (Homo sapiens, UniProt P57059); assay: biochemical; set-up: KinomeScan competition binding panel (DiscoveRx), percent of control at 1 uM; conditions: read-out: Percent Control
T3 construct: gene SIK1
Outline: (§1)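 Selectivity profiled across 456 kinases/mutants by KinomeScan binding technology.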

HCK = HCK (Homo sapiens, UniProt P08631); assay: biochemical; set-up: KinomeScan competition binding panel (DiscoveRx), percent of control at 1 uM; conditions: read-out: Percent Control
Outline: as §1

CSNK2A1 = CSNK2A1 (Homo sapiens, UniProt P68400); assay: biochemical; set-up: KinomeScan competition binding panel (DiscoveRx), percent of control at 1 uM; conditions: read-out: Percent Control
Chain of CSNK2A1 (P68400 whole entry): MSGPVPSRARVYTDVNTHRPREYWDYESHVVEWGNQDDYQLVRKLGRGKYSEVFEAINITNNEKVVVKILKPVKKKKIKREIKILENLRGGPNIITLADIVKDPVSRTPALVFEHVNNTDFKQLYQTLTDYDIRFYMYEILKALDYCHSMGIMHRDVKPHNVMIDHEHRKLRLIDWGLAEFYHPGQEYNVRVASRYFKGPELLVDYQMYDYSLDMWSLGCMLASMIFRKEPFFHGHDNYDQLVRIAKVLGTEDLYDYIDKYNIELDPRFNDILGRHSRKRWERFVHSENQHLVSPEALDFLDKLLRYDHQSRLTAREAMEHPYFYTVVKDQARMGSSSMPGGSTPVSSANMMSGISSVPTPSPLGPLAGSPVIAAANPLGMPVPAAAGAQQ
Outline: as §1

DAPK2 = DAPK2 (Homo sapiens, UniProt Q9UIK4); assay: biochemical; set-up: KinomeScan competition binding panel (DiscoveRx), percent of control at 1 uM; conditions: read-out: Percent Control
Outline: as §1

STK35 = STK35 (Homo sapiens, UniProt Q8TDR2); assay: biochemical; set-up: KinomeScan competition binding panel (DiscoveRx), percent of control at 1 uM; conditions: read-out: Percent Control
Chain of STK35 (Q8TDR2 whole entry): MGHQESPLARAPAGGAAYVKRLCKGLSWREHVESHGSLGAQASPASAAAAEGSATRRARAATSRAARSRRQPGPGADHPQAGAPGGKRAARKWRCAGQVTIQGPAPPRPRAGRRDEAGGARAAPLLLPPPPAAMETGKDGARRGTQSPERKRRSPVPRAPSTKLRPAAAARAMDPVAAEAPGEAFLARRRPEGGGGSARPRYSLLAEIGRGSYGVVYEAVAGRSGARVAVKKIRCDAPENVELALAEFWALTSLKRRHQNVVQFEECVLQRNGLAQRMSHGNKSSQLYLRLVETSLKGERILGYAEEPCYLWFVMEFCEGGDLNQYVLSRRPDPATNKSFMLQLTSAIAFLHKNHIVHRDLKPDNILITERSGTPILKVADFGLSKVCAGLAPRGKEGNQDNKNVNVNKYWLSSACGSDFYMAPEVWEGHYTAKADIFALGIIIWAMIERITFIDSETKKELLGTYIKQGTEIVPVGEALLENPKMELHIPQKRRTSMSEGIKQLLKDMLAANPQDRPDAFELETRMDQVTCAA
Outline: as §1

CDK11 = molecular target: T4, CDK11 (Homo sapiens, UniProt Q9BWU1); assay: biochemical; set-up: KinomeScan competition binding panel (DiscoveRx), percent of control at 1 uM; conditions: read-out: Percent Control
T4 construct: gene CDK19
Outline: as §1

PIP5K2B = molecular target: T5, PIP5K2B (Homo sapiens, UniProt P78356); assay: biochemical; set-up: KinomeScan competition binding panel (DiscoveRx), percent of control at 1 uM; conditions: read-out: Percent Control
T5 construct: gene PIP4K2B
Outline: as §1

MAP3K1 = MAP3K1 (Homo sapiens, UniProt Q13233); assay: biochemical; set-up: KinomeScan competition binding panel (DiscoveRx), percent of control at 1 uM; conditions: read-out: Percent Control
Outline: as §1

LZK = molecular target: T6, LZK (Homo sapiens, UniProt O43283); assay: biochemical; set-up: KinomeScan competition binding panel (DiscoveRx), percent of control at 1 uM; conditions: read-out: Percent Control
T6 construct: gene MAP3K13
Outline: as §1

ERK3 = molecular target: T7, ERK3 (Homo sapiens, UniProt Q16659); assay: biochemical; set-up: KinomeScan competition binding panel (DiscoveRx), percent of control at 1 uM; conditions: read-out: Percent Control
T7 construct: gene MAPK6
Outline: as §1

CSF1R-autoinhibited = CSF1R-autoinhibited (Homo sapiens, UniProt P07333); assay: biochemical; set-up: KinomeScan competition binding panel (DiscoveRx), percent of control at 1 uM; conditions: read-out: Percent Control
Outline: as §1

[1] = molecular target: T8, JAK1(JH1domain-catalytic) (Homo sapiens, UniProt P23458); assay: biochemical; set-up: KinomeScan competition binding panel (DiscoveRx), percent of control at 1 uM; conditions: read-out: Percent Control
T8 construct: JH1domain-catalytic
T8 sequence (P23458 whole entry): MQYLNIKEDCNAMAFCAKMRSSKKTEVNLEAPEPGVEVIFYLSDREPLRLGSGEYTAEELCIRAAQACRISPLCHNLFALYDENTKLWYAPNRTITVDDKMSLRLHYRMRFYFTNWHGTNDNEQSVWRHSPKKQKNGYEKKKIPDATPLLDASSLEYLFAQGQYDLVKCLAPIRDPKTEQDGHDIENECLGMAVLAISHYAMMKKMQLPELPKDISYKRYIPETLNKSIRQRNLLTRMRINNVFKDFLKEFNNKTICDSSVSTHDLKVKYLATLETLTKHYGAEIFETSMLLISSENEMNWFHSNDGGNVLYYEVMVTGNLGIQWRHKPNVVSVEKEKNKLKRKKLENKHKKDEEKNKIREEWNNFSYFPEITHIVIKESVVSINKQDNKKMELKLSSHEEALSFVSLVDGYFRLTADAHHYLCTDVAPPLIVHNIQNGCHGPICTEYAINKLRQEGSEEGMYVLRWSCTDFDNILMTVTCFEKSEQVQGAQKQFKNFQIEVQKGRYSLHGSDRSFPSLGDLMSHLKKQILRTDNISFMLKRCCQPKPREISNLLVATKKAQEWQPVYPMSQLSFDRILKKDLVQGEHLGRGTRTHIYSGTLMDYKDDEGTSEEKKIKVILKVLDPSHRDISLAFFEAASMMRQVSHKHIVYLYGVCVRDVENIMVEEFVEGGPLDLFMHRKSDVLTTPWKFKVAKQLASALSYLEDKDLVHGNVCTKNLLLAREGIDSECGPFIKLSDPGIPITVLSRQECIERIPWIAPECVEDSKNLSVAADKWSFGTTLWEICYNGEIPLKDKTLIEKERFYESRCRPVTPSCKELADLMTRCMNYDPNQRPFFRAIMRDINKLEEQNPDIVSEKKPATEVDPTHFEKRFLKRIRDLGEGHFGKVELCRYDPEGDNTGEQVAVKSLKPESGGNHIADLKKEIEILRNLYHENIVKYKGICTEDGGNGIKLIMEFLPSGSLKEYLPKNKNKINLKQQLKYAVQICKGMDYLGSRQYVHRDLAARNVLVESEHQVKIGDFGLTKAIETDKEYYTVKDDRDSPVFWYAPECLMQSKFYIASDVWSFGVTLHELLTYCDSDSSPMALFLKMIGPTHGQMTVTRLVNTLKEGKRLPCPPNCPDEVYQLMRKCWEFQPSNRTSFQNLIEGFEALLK
Outline: as §1

CDK7 = CDK7 (Homo sapiens, UniProt P50613); assay: biochemical; set-up: KinomeScan competition binding panel (DiscoveRx), percent of control at 1 uM; conditions: read-out: Percent Control
Outline: as §1

[2] = molecular target: T9, ABL1(Q252H)-nonphosphorylated (Homo sapiens, UniProt P00519, Q252H); assay: biochemical; set-up: KinomeScan competition binding panel (DiscoveRx), percent of control at 1 uM; conditions: read-out: Percent Control
T9 construct: nonphosphorylated
Outline: as §1

CDC2L2 = molecular target: T10, CDC2L2 (Homo sapiens, UniProt Q9UQ88); assay: biochemical; set-up: KinomeScan competition binding panel (DiscoveRx), percent of control at 1 uM; conditions: read-out: Percent Control
T10 construct: gene CDK11A
Outline: as §1

SGK2 = SGK2 (Homo sapiens, UniProt Q9HBY8); assay: biochemical; set-up: KinomeScan competition binding panel (DiscoveRx), percent of control at 1 uM; conditions: read-out: Percent Control
Outline: as §1

MYO3A = MYO3A (Homo sapiens, UniProt Q8NEV4); assay: biochemical; set-up: KinomeScan competition binding panel (DiscoveRx), percent of control at 1 uM; conditions: read-out: Percent Control
Chain of MYO3A (Q8NEV4 whole entry): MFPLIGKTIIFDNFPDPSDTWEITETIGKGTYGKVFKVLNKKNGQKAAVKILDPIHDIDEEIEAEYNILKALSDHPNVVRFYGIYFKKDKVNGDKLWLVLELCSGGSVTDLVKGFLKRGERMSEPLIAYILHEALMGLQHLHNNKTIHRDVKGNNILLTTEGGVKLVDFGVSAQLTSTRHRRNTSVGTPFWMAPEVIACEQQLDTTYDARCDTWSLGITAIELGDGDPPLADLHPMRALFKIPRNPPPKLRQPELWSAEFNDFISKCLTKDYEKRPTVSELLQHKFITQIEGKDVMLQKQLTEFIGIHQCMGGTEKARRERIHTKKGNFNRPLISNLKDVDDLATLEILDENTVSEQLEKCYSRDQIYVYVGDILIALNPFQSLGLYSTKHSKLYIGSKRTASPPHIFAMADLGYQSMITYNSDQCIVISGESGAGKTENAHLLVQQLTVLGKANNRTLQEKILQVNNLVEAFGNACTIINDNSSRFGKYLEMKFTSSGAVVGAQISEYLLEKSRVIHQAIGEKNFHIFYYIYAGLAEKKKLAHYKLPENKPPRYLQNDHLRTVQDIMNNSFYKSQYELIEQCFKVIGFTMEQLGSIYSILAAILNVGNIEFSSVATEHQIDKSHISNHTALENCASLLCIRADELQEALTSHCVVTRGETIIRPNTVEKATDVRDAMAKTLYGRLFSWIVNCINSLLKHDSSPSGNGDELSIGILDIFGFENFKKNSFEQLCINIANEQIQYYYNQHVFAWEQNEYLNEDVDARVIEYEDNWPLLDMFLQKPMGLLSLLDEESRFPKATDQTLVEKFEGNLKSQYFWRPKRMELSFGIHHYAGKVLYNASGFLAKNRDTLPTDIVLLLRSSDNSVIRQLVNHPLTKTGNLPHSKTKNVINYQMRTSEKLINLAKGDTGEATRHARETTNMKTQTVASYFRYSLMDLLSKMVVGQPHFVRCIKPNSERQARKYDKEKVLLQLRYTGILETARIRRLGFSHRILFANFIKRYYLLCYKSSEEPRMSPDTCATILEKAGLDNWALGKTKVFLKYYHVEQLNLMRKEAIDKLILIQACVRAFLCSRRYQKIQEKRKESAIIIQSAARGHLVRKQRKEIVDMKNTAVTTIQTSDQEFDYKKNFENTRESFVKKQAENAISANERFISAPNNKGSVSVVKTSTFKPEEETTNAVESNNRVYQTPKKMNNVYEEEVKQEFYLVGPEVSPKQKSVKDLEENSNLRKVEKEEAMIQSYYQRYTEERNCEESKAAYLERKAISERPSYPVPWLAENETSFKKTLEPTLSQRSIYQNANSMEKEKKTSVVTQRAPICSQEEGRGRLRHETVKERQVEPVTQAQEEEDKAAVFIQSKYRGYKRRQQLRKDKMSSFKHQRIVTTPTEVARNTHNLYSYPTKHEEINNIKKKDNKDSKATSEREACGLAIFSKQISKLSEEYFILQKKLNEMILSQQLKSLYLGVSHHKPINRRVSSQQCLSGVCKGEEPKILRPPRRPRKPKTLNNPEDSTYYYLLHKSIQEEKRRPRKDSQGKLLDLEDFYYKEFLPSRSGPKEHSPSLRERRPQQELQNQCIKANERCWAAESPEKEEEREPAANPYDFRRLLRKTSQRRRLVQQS
Outline: as §1

QSK = molecular target: T11, QSK (Homo sapiens, UniProt Q9Y2K2); assay: biochemical; set-up: KinomeScan competition binding panel (DiscoveRx), percent of control at 1 uM; conditions: read-out: Percent Control
T11 construct: gene SIK3
T11 sequence (Q9Y2K2 whole entry): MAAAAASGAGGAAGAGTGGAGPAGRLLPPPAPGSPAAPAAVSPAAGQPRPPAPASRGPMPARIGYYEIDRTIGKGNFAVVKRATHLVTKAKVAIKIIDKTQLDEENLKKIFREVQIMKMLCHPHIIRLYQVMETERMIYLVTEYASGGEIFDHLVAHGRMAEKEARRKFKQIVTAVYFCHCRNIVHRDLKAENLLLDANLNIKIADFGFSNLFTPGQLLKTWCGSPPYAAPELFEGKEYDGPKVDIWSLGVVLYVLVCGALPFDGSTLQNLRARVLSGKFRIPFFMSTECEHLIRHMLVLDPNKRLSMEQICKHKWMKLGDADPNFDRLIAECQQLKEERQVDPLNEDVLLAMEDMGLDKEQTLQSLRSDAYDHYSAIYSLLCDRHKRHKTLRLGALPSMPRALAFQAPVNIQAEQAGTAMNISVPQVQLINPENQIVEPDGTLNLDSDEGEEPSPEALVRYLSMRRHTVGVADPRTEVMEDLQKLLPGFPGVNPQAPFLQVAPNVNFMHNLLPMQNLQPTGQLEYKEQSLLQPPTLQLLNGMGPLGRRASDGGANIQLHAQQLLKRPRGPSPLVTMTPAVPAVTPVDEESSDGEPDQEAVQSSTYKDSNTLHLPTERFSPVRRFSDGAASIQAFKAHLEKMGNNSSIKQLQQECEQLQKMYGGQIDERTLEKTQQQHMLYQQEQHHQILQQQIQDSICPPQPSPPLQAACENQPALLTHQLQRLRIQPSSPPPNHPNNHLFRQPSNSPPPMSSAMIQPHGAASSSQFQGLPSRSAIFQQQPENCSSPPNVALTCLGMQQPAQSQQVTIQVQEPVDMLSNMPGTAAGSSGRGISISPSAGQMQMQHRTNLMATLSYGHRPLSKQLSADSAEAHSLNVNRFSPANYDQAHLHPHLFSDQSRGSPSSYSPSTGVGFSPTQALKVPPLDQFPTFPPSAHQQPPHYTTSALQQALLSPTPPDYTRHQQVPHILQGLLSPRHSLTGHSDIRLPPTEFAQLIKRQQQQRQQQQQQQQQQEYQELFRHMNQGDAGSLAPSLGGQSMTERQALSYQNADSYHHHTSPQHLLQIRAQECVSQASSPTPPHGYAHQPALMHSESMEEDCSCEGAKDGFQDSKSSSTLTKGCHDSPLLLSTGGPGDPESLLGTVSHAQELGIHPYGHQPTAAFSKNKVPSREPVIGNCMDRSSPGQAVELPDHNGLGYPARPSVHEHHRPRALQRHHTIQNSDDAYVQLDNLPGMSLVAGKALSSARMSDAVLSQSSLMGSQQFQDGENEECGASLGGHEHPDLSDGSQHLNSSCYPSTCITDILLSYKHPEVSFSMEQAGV
Outline: as §1

KIT = KIT (Homo sapiens, UniProt P10721); assay: biochemical; set-up: KinomeScan competition binding panel (DiscoveRx), percent of control at 1 uM; conditions: read-out: Percent Control
Outline: as §1

PFCDPK1(P.falciparum) = molecular target: T12, PFCDPK1(P.falciparum) (Plasmodium falciparum, UniProt P62344); assay: biochemical; set-up: KinomeScan competition binding panel (DiscoveRx), percent of control at 1 uM; conditions: read-out: Percent Control
T12 construct: gene CDPK1

C=CC(=O)Nc1cc(-n2c(=O)ccc3cnc4ccc(-n5cccn5)cc4c32)ccc1C [CHMFL-BTK-11]
70%: remaining binding at 1 µM (CSF1R-autoinhibited)
89%: remaining binding at 1 µM (CDK11) | remaining binding at 1 µM (CDK7)
227 nM: IC50 (JAK3 kinase)
97%: remaining binding at 1 µM (PFCDPK1(P.falciparum))
92%: remaining binding at 1 µM (CSNK2A1) | remaining binding at 1 µM (QSK)
85%: remaining binding at 1 µM (SGK2)
100%: remaining binding at 1 µM (PFPK5(P.falciparum)) | remaining binding at 1 µM (SIK) | remaining binding at 1 µM (HCK) | remaining binding at 1 µM (DAPK2) | remaining binding at 1 µM (STK35) | remaining binding at 1 µM (PIP5K2B) | remaining binding at 1 µM (MAP3K1) | remaining binding at 1 µM (LZK) | remaining binding at 1 µM (ERK3) | remaining binding at 1 µM [1] | remaining binding at 1 µM [2] | remaining binding at 1 µM (CDC2L2) | remaining binding at 1 µM (MYO3A) | remaining binding at 1 µM (KIT)
